# Results from patent US20050267054A1, “Antibacterial compounds with improved pharmacokinetic profiles” (priority 2002, published 2005).
# Read-outs that look alike come from different tables or passages of the source.
# Assay: Pharmacokinetic profile, cassette dosing protocol in dog (IV and PO)
# Format: in vivo
# Conditions: male beagle dogs, 1 mg/kg; for AUC / clearance / half-life / Cmax / Tmax / Vd: dog, plasma; for clearance: read-out: CLp (IV) plasma clearance (converted); for Vd: male, beagle, iv
# Description: The pharmacokinetic profiles of EXAMPLE 20, EXAMPLE 22, EXAMPLE 29 and EXAMPLE 31 were evaluated using cassette dosing protocols in dog. The cassette dosing protocol in dogs combined three test compounds with the reference compound (EXAMPLE 104 of commonly-owned U.S. Pat. No. 5,866,549), each at a dose of 1 mg/kg. The compounds for each cassette were formulated as a solution in an aqueous vehicle containing 10% ethanol and one equivalent hydrochloric acid. Groups of three male beagle dogs received either an intravenous dose (IV) or an oral dose (PO). Sequential blood samples were taken from each animal for 24 hours after dosing. The plasma concentrations of the test compound and reference compounds were simultaneously determined using HPLC-MS/MS following liquid-liquid extraction of the samples. The results are shown in TABLE 2, in which CLp is plasma clearance; T1/2 and Tmax are expressed in hours; Cmax is expressed in μg/mL; AUC is expressed in μg·h/mL; F is percent bioavaibility; and Vc and Vb (volumes of distibution) are expressed in L/Kg.
# [1] = intravenous dose, read-out: AUC (IV)
# [2] = intravenous dose, read-out: T1/2 (IV) (converted)
# [3] = oral dose, read-out: T1/2 (PO) (converted)
# [4] = intravenous dose, read-out: Vb (IV) volume of distribution
# [5] = intravenous dose, read-out: Vc (IV) volume of distribution
SMILES,AUC [1] [ng·h/mL],clearance (intravenous dose) [mL/min/kg],half-life [2] [h],Cmax (oral dose) [ng/mL],Tmax (oral dose) [h],"AUC (oral dose, read-out: AUC (PO)) [ng·h/mL]",half-life [3] [h],F (PO) percent bioavaibility (oral dose) [%],Vd [4] [L/kg],Vd [5] [L/kg]
"CC[C@H]1OC(=O)[C@@](C)(F)C(=O)[C@H](C)[C@@H](O[C@@H]2O[C@H](C)C[C@H](N(C)C)[C@H]2O)C(C)(OC/C=C/c2ccc(-c3nnn(C)n3)s2)C[C@@H](C)C(=O)[C@H](C)[C@H]2NC(=O)O[C@@]21C (stereo in doubt) [EXAMPLE 31, (3aS,4R,7S,9R,10R,11S,13R,15R,15aR)-4-ethyl-7-fluoro-3a,7,9,11,13,15-hexamethyl-11-(((2E)-3-(5-(2-methyl-2H-tetraazol-5-yl)thien-2-yl)prop-2-enyl)oxy)-2,6,8,14-tetraoxotetradecahydro-2H-oxacyclotetradecino(4,3-d) (1,3)-oxazol-10-yl 3,4,6-trideoxy-3-(dimethylamino)-β-D-xylo-hexopyranoside]",16100,1.17,22.9,480,4.5,12600,17.2,81.10,2.3,1.1
"CC[C@H]1OC(=O)[C@H](C)C(=O)[C@H](C)[C@@H](O[C@@H]2O[C@H](C)C[C@H](N(C)C)[C@H]2O)C(C)(OC/C=C/c2ccc(-c3nnn(C)n3)s2)C[C@@H](C)C(=O)[C@H](C)[C@H]2NC(=O)O[C@@]21C (stereo in doubt) [EXAMPLE 22, (3aS,4R,7R,9R,10R,11S,13R,15R,15aR)-4-ethyl-3a,7,9,11,13,15-hexamethyl-11-(((2E)-3-(5-(2-methyl-2H-tetraazol-5-yl)thien-2-yl)prop-2-enyl)oxy)-2,6,8,14-tetraoxotetradecahydro-2H-oxacyclotetradecino(4,3-d) (1,3)-oxazol-10-yl 3,4,6-trideoxy-3-(dimethylamino)-β-D-xylo-hexopyranoside]",11500,1.5,8.4,490,1.5,6770,7.8,63.00,1.1,0.9
"CC[C@H]1OC(=O)[C@@](C)(F)C(=O)[C@H](C)[C@@H](O[C@@H]2O[C@H](C)C[C@H](N(C)C)[C@H]2O)C(C)(OCC#Cc2ccc(-c3nnn(C)n3)s2)C[C@@H](C)C(=O)[C@H](C)[C@H]2NC(=O)O[C@@]21C (stereo in doubt) [EXAMPLE 20, (3aS,4R,7S,9R,10R,11S,13R,15R,15aR)-4-ethyl-7-fluoro-3a,7,9,11,13,15-hexamethyl-11-((3-(5-(2-methyl-2H-tetraazol-5-yl)thien-2-yl)prop-2-ynyl)oxy)-2,6,8,14-tetraoxotetradecahydro-2H-oxacyclotetradecino(4,3-d) (1,3)-oxazol-10-yl 3,4,6-trideoxy-3-(dimethylamino)-β-D-xylo-hexopyranoside]",7290,2.67,14.4,250,2,5140,11.1,73.60,3.1,1.6
"CC[C@H]1OC(=O)[C@H](C)C(=O)[C@H](C)[C@@H](O[C@@H]2O[C@H](C)C[C@H](N(C)C)[C@H]2O)C(C)(OCC#Cc2ccc(-c3nnn(C)n3)s2)C[C@@H](C)C(=O)[C@H](C)[C@H]2NC(=O)O[C@@]21C (stereo in doubt) [EXAMPLE 29, (3aS,4R,7R,9R,10R,11S,13R,15R,15aR)-4-ethyl-3a,7,9,11,13,15-hexamethyl-11-((3-(5-(2-methyl-2H-tetraazol-5-yl)thien-2-yl)prop-2-ynyl)oxy)-2,6,8,14-tetraoxotetradecahydro-2H-oxacyclotetradecino(4,3-d) (1,3)-oxazol-10-yl 3,4,6-trideoxy-3-(dimethylamino)-β-D-xylo-hexopyranoside]",,,,,,,,80.30,1.2,0.9
